Results reported in EP4778526A1, “ANTI-AGING AGENT, ORAL COMPOSITION FOR ANTI-AGING, AND USE OF COMPOUND” (Institute of Rheological Function of Food Co., Ltd., priority 2023, dated 2025).

Key:
[1] = tested on: SIRT1; assay: Test Example 1: real-time PCR of SIRT1 mRNA expression in HHORSCs cultured with KIT13; assay type: cell-based; conditions: Human hair outer root sheath cells (HHORSCs), 5 µg/ml, 7 hours; mRNA normalized by 18S rRNA; vs culture medium not containing KIT13; FIG. 2
Method: (§1) Human hair outer root sheath cells (HHORSCs; manufactured by ScienCell Research Laboratories, #2420) were cultured for 7 hours in a culture medium containing 5 µg/ml of KIT13. As a culture medium for HHORSCs, a mesenchymal stem cell medium (manufactured by ScienCell Research Laboratories, #7501) was used. As a negative control, HHORSCs were cultured in a culture medium not containing KIT13.
(§2) RNA was extracted from cells using TRIzol (manufactured by Thermo Fisher Scientific). Subsequently, a first strand cDNA was prepared using PrimeScript RT Master Mix (manufactured by Takara), and mRNA expression of target genes and endogenous control genes was detected by real-time PCR using TB Green Premix Ex Taq II (manufactured by Takara) and T100 (trademark) Thermal Cycler (manufactured by BIO-RAD). The target genes were NAMPT, SIRT1, and NRF1, UQCRC1, and ATP5A1 whose expression is induced by activation of SIRT1 (Yuanyuan Huang, and ten others, "Resveratrol-induced Sirt1 phosphorylation by LKB1 mediates mitochondrial metabolism", J. Biol. Chem., 2021, 297(2), 100929). As the endogenous control gene, 18S ribosomal RNA (18S rRNA) was used, and measurement values of each gene were normalized by measurement values of 18S rRNA.

[2] = tested on: UQCRC1; assay: Test Example 1: real-time PCR of UQCRC1 mRNA expression in HHORSCs cultured with KIT13; assay type: cell-based; conditions: Human hair outer root sheath cells (HHORSCs), 5 µg/ml, 7 hours; mRNA normalized by 18S rRNA; vs culture medium not containing KIT13; FIG. 4
Method: as §1, §2

[3] = tested on: SIRT1; assay: Test Example 2: real-time PCR of SIRT1 mRNA expression in femoral muscle of mice given KIT13; assay type: in vivo; conditions: four-week-old male c57BL6J mice, by drinking water, 20 µg/kg for four weeks; femoral muscles; mRNA normalized by β-actin; FIG. 7
Method: (§3) KIT13 was administered to four-week-old male c57BL6J mice (five mice per group, n = 5) by drinking water at a dose of 20 µg/kg for four weeks. Femoral muscles were collected from each mouse and analyzed as follows.
(§4) Femoral muscles were crushed by homogenization using 18G to 25G injection needles in Buffer A (0.25 M sucrose, 10 mM Hepes-KOH (pH 7.5), 1 mM EDTA, protease inhibitor cocktail), and RNA was extracted from the cells based on equal amounts of protein using TRIzol (manufactured by Thermo Fisher Scientific). Subsequently, a first strand cDNA was prepared using PrimeScript RT Master Mix (manufactured by Takara), and mRNA expression of target genes and endogenous control genes was detected by real-time PCR using TB Green Premix Ex Taq II (manufactured by Takara) and T100 (trademark) Thermal Cycler (manufactured by BIO-RAD). The target genes were NAMPT and SIRT1, and the endogenous control gene was β-actin. Measurement values of each gene were normalized by measurement values of β-actin.

[4] = tested on: NAMPT; assay: Test Example 1: real-time PCR of NAMPT mRNA expression in HHORSCs cultured with KIT13; assay type: cell-based; conditions: Human hair outer root sheath cells (HHORSCs), 5 µg/ml, 7 hours; mRNA normalized by 18S rRNA; vs culture medium not containing KIT13; FIG. 1
Method: as §1, §2

[5] = tested on: NAMPT; assay: Test Example 2: real-time PCR of NAMPT mRNA expression in femoral muscle of mice given KIT13; assay type: in vivo; conditions: four-week-old male c57BL6J mice, by drinking water, 20 µg/kg for four weeks; femoral muscles; mRNA normalized by β-actin; FIG. 6
Method: as §3, §4

[6] = tested on: NRF1; assay: Test Example 1: real-time PCR of NRF1 mRNA expression in HHORSCs cultured with KIT13; assay type: cell-based; conditions: Human hair outer root sheath cells (HHORSCs), 5 µg/ml, 7 hours; mRNA normalized by 18S rRNA; vs culture medium not containing KIT13; FIG. 3
Method: as §1, §2

[7] = tested on: ATP5A1; assay: Test Example 1: real-time PCR of ATP5A1 mRNA expression in HHORSCs cultured with KIT13; assay type: cell-based; conditions: Human hair outer root sheath cells (HHORSCs), 5 µg/ml, 7 hours; mRNA normalized by 18S rRNA; vs culture medium not containing KIT13; FIG. 5
Method: as §1, §2

CCCCC/C=C\C/C=C\C/C=C\C/C=C\CCCC(=O)O[C@H](COCCCCCCCCCCCCCCCCCC)COP(=O)(O)OCCN [KIT13]
relative expression level of SIRT1 [1]: significantly increased | relative expression level of UQCRC1 [2]: increased | relative expression level of SIRT1 in muscle [3]: significantly increased | relative expression level of NAMPT [4]: significantly increased | relative expression level of NAMPT in muscle [5]: significantly increased | relative expression level of NRF1 [6]: increased | relative expression level of ATP5A1 [7]: increased
